Laboratory results published in patent US12398121B2 (Nuvation Bio Inc., priority 2018, dated 2025).

Legend:
22RV1 cells = assay: Cell proliferation assay (CellTiter Glo), 22RV1; type: cell-based; details: Homo sapiens, 22Rv1, 72 h; cell growth inhibition, three days of treatment; read-out: 22RV1 IC50
Human recombinant PARP2 = Human recombinant PARP2 (Homo sapiens, UniProt Q9UGN5); assay: RBC HotSpot PARP2 radioisotope-based filter binding assay; type: biochemical; details: 2.5 nM enzyme, histone H3, 10 μM 32P-NAD+; read-out: PARP2 IC50
Method in brief: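 Radiometric filter-binding assay: 2.5 nM recombinant enzyme with 20 μM histone (H4 for PARP1, H3 for PARP2) and activated DNA, pH 8.0, 1% DMSO. 20 min preincubation, then 10 μM ^32P-NAD^+ for 2 h at room temperature; filtered radioactivity gives IC50 fits.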

Chain of Human recombinant PARP2 (Q9UGN5 whole entry): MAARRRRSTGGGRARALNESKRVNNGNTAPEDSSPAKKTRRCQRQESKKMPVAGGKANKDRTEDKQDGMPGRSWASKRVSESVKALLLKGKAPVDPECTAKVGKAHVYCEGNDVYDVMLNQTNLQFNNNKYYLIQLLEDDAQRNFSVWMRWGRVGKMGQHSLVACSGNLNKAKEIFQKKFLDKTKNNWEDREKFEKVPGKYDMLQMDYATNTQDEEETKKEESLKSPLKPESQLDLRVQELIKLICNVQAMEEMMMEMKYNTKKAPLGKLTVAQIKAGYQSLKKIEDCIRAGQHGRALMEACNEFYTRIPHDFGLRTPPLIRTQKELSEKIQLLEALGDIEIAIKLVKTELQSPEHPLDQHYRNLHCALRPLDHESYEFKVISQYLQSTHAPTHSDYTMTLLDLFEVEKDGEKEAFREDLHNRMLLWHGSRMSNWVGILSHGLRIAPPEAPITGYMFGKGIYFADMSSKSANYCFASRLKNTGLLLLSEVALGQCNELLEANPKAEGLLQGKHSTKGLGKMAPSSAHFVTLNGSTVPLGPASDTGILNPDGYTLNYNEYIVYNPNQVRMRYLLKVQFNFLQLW

O=C(c1ccc(OCCN2CCN(C(=O)c3cc(Cc4n[nH]c(=O)c5ccccc45)ccc3F)CC2)cc1)c1c(-c2ccc(O)cc2)sc2cc(O)ccc12 [Compound 2.13, 4-(4-fluoro-3-(4-(2-(4-(6-hydroxy-2-(4-hydroxyphenyl)benzo[b]thiophene-3-carbonyl)phenoxy)ethyl)piperazine-1-carbonyl)benzyl)phthalazin-1(2H)-one]
IC50 (22RV1 cells): 1690 nM
IC50 (Human recombinant PARP2): 0.5 nM
